In general, EC50 refers to the concentration that produces a half-maximal response. A higher EC50 goes with a less potent agent. The IC50 is the point on the concentration scale where inhibition reaches its midpoint. The low end stands for inhibition by little substance, the high end for a need for much substance.

Some results are limits rather than exact numbers.

Experiment [1] relates to primary human fibroblasts derived from IPF patients (LL29 cells). The experiment can be described thus: Inhibition of fibrosis (αSMA staining) in TGF-β1-treated primary human fibroblasts from IPF patients. The settings on record: Fibroblast, 96 h, TGF-β1 20 ng/mL, 4 days. It is filed as cell-based. The method, then: The above synthesized compounds were screened using primary human fibroblasts (derived from IPF patients) treated with TGF-β1 to determine their ability to inhibit the fibrotic process.
Compound Screening: Each compound was dissolved in DMSO as a 10 mM stock and used to prepare compound source plates. […] LL29 cells were plated at 1,500 cells/well in 80 μl/well F12 medium supplemented with 1% Fetal Bovine Serum. One hour after addition of the cells, TGF-β1 (Peprotech; 20 ng/mL) was added to the plates to induce fibrosis (ref. 1 and 2 above). Wells treated with TGF-β1 and containing DMSO were used as controls. Cells were incubated at 37° C. and 5% CO2 for 4 days. Following incubation for 4 days, SYTOX green nucleic acid stain (Life Technologies [Thermo Fisher Scientific]) was added to the wells at a final concentration of 1 uM and incubated at room temperature for 30 min. Cells were then fixed using 4% formaldehyde (Electron Microscopy Sciences), washed 3 times with PBS followed by blocking and permeabilization using 3% Bovine Serum Albumin (BSA; Sigma) and 0.3% Triton X-100 (Sigma) in PBS. Cells were then stained with antibody specific to α-smooth muscle actin (aSMA; Abcam) (ref. 1 and 2 above) in 3% Bovine Serum Albumin (BSA; Sigma) and 0.3% Triton X-100 (Sigma) in PBS, and incubated overnight at 4° C. […] Dead or apoptotic cells were excluded from analysis based on positive SYTOX green staining. % of total cells positive for αSMA were counted in each well and normalized to the average of 11 wells treated with TGF-β1 on the same plate using Dotmatics' Studies Software. […] The EC50 values are reported.

The subject of experiment [2] is Wnt activity (Sp5-Luc reporter, SW480 colon carcinoma cells). Put plainly: Sp5-Luc Wnt reporter gene screening assay in SW480 colon carcinoma cells. To be noted: Homo sapiens. On the technique in general: Reporter assays use an easily measured gene product as a stand-in for the process of interest.

In turn, `O=C(Nc1cncc(-c2cc3c(-c4nc5c(-c6cccc(F)c6)cccc5[nH]4)n[nH]c3cn2)c1)C1CCC1` [Compound 20] returned an EC50 in experiment [1] of 10 nM. Besides, the IC50 in experiment [2] is 74.4 nM.
The corresponding values for `Fc1cccc(-c2cccc3[nH]c(-c4n[nH]c5cnc(-c6cncc(CN7CCC(F)(F)C7)c6)cc45)nc23)c1` [Compound 25, 5-(5-((3,3-Difluoropyrrolidin-1-yl)methyl)pyridin-3-yl)-3-(4-(3-fluorophenyl)-1H-benzo[d]imidazol-2-yl)-1H-pyrazolo[3,4-c]pyridine] are 48 nM and 87.3 nM.
Consider `CC(C)CC(=O)Nc1cncc(-c2cc3c(-c4nc5c(-c6ccc(F)cc6)cccc5[nH]4)n[nH]c3cn2)c1` [Compound 28, N-(5-(3-(4-(4-Fluorophenyl)-1H-benzo[d]imidazol-2-yl)-1H-pyrazolo[3,4-c]pyridin-5-yl)pyridin-3-yl)-3-methylbutanamide], for which the concentration giving a half-maximal response (EC50) in experiment [1] is 741 nM. Inhibition in experiment [2] was half-maximal at 90.8 nM (IC50).
The like results for `Fc1ccc(-c2cccc3[nH]c(-c4n[nH]c5cnc(-c6cncc(CN7CCCC7)c6)cc45)nc23)cc1` [Compound 40, 3-(4-(4-Fluorophenyl)-1H-benzo[d]imidazol-2-yl)-5-(5-(pyrrolidin-1-ylmethyl)pyridin-3-yl)-1H-pyrazolo[3,4-c]pyridine] were, in that order, 78 nM and 287 nM.
The corresponding values for `O=C(Nc1cncc(-c2cc3c(-c4nc5c(-c6ccc(F)cc6)cccc5[nH]4)n[nH]c3cn2)c1)C1CCC1` [Compound 46, N-(5-(3-(4-(4-Fluorophenyl)-1H-benzo[d]imidazol-2-yl)-1H-pyrazolo[3,4-c]pyridin-5-yl)pyridin-3-yl)cyclobutanecarboxamide] are 94 nM and 48.9 nM.
The corresponding values for `Fc1ccc(-c2cccc3[nH]c(-c4n[nH]c5cnc(-c6cncnc6)cc45)nc23)cc1` [Compound 52, 3-(4-(4-Fluorophenyl)-1H-benzo[d]imidazol-2-yl)-5-(pyrimidin-5-yl)-1H-pyrazolo[3,4-c]pyridine] are 147 nM and 122 nM.
In experiment [1], `CC(C)C(=O)Nc1cncc(-c2cc3c(-c4nc5c(-c6ccccc6F)cccc5[nH]4)n[nH]c3cn2)c1` [Compound 61, N-(5-(3-(4-(2-Fluorophenyl)-1H-benzo[d]imidazol-2-yl)-1H-pyrazolo[3,4-c]pyridin-5-yl)pyridin-3-yl)isobutyramide] registered an EC50 of 81 nM. The IC50 in experiment [2] is 81.2 nM.
The like results for `CC(C)(C)CC(=O)Nc1cncc(-c2cc3c(-c4nc5c(-c6ccccc6F)cccc5[nH]4)n[nH]c3cn2)c1` [Compound 68, N-(5-(3-(4-(2-Fluorophenyl)-1H-benzo[d]imidazol-2-yl)-1H-pyrazolo[3,4-c]pyridin-5-yl)pyridin-3-yl)-3,3-dimethylbutanamide] were, in that order, 1670 nM and 164 nM.
In experiment [1], `O=C(Nc1cncc(-c2cc3c(-c4nc5c(-c6ccccc6F)cccc5[nH]4)n[nH]c3cn2)c1)C1CCCC1` [Compound 73, N-(5-(3-(4-(2-Fluorophenyl)-1H-benzo[d]imidazol-2-yl)-1H-pyrazolo[3,4-c]pyridin-5-yl)pyridin-3-yl)cyclopentanecarboxamide] had an EC50 of 1190 nM. This compound gave an IC50 in experiment [2] of 123 nM.
The corresponding values for `CC(C)C(=O)Nc1cncc(-c2cc3c(-c4nc5c(-c6cccnc6)cccc5[nH]4)n[nH]c3cn2)c1` [Compound 87, N-(5-(3-(4-(Pyridin-3-yl)-1H-benzo[d]imidazol-2-yl)-1H-pyrazolo[3,4-c]pyridin-5-yl)pyridin-3-yl)isobutyramide] are 124 nM and 45.4 nM.
The corresponding values for `CC(C)Nc1cncc(-c2cc3c(-c4nc5c(-c6cccnc6)cccc5[nH]4)n[nH]c3cn2)c1` [Compound 90, N-Isopropyl-5-(3-(4-(pyridin-3-yl)-1H-benzo[d]imidazol-2-yl)-1H-pyrazolo[3,4-c]pyridin-5-yl)pyridin-3-amine] are 9 nM and 13.9 nM.
The corresponding values for `c1cncc(-c2cccc3[nH]c(-c4n[nH]c5cnc(-c6cncc(CN7CCCCC7)c6)cc45)nc23)c1` [Compound 93, 5-(5-(Piperidin-1-ylmethyl)pyridin-3-yl)-3-(4-(pyridin-3-yl)-1H-benzo[d]imidazol-2-yl)-1H-pyrazolo[3,4-c]pyridine] are 9 nM and 534 nM.
Regarding `c1ccc(CNCc2cncc(-c3cc4c(-c5nc6c(-c7cccnc7)cccc6[nH]5)n[nH]c4cn3)c2)cc1` [Compound 101, N-Benzyl-1-(5-(3-(4-(pyridin-3-yl)-1H-benzo[d]imidazol-2-yl)-1H-pyrazolo[3,4-c]pyridin-5-yl)pyridin-3-yl)methanamine], in experiment [1], a half-maximal response (EC50) required 9 nM. This compound also returned an IC50 in experiment [2] of 183 nM.
The corresponding values for `Cc1ccncc1-c1cc2c(-c3nc4c(-c5ccncc5)cccc4[nH]3)n[nH]c2cn1` [Compound 109, 5-(4-Methylpyridin-3-yl)-3-(4-(pyridin-4-yl)-1H-benzo[d]imidazol-2-yl)-1H-pyrazolo[3,4-c]pyridine] are 29 nM and 42.5 nM.
The like results for `O=C(Nc1cncc(-c2cc3c(-c4nc5c(-c6ccncc6)cccc5[nH]4)n[nH]c3cn2)c1)C1CCCCC1` [Compound 126, N-(5-(3-(4-(Pyridin-4-yl)-1H-benzo[d]imidazol-2-yl)-1H-pyrazolo[3,4-c]pyridin-5-yl)pyridin-3-yl)cyclohexanecarboxamide] were, in that order, 9990 nM and over 10000 nM.
The like results for `CCNCc1cncc(-c2cc3c(-c4nc5c(-c6ccccn6)cccc5[nH]4)n[nH]c3cn2)c1` [Compound 136, N-((5-(3-(4-(Pyridin-2-yl)-1H-benzo[d]imidazol-2-yl)-1H-pyrazolo[3,4-c]pyridin-5-yl)pyridin-3-yl)methyl)ethanamine] were, in that order, 122 nM and 177 nM.
In experiment [1], `O=C(Nc1cncc(-c2cc3c(-c4nc5c(-c6ccccn6)cccc5[nH]4)n[nH]c3cn2)c1)c1ccccc1` [Compound 141, N-(5-(3-(4-(Pyridin-2-yl)-1H-benzo[d]imidazol-2-yl)-1H-pyrazolo[3,4-c]pyridin-5-yl)pyridin-3-yl)benzamide] came in with an EC50 of 39 nM. Also, the IC50 in experiment [2] came to 411 nM.
Regarding `CCCCC(=O)Nc1cncc(-c2cc3c(-c4nc5c(-c6ccccn6)cccc5[nH]4)n[nH]c3cn2)c1` [Compound 148, N-(5-(3-(4-(Pyridin-2-yl)-1H-benzo[d]imidazol-2-yl)-1H-pyrazolo[3,4-c]pyridin-5-yl)pyridin-3-yl)pentanamide], the EC50 in experiment [1] stood at 225 nM. Also, in experiment [2], the IC50 is 177 nM.
The like results for `c1ccc(-c2cccc3[nH]c(-c4n[nH]c5cnc(-c6cncc(CNCC7CCCC7)c6)cc45)nc23)nc1` [Compound 154, 1-Cyclopentyl-N-((5-(3-(4-(pyridin-2-yl)-1H-benzo[d]imidazol-2-yl)-1H-pyrazolo[3,4-c]pyridin-5-yl)pyridin-3-yl)methyl)methanamine] were, in that order, 9 nM and 596 nM.
The like results for `CCC(=O)Nc1cncc(-c2cc3c(-c4nc5c(N6CCCCC6)cccc5[nH]4)n[nH]c3cn2)c1` [Compound 157, N-(5-(3-(4-(Piperidin-1-yl)-1H-benzo[d]imidazol-2-yl)-1H-pyrazolo[3,4-c]pyridin-5-yl)pyridin-3-yl)propionamide] were, in that order, 99 nM and 97.2 nM.

(Values after patent publication US10202377B2, “3-(1H-benzo[D]imidazol-2-yl)-1H-pyrazolo[3,4-C]pyridine and therapeutic uses thereof” (Samumed, LLC, priority 2014, dated 2019).)
